Laboratory results from patent publication US4293483A, “Derivatives of A-30912A nucleus” (priority 1980, dated 1981).
Converted amounts (≈) assume the structure as drawn. “And” between values parts separate entries of the source, which are not always exact repeats. Identical values can stand only once. Like-named read-outs stand apart in the source and are kept apart here. Numbered stars: 1 amine (or outer) side, 2 acyl side, 3 side chain; on linkers, the order of the positions; unused ones are H or OH. Bridge positions count the residues as written; N and C are the ends. Square brackets hold non-standard residues; d marks the D form. Peptide text beside a SMILES is read from it. * marks the point of attachment. Orn(4R-OH,5R-OH) = O=C([C@H](C[C@@H](O)[C@@H](O)N[*:3])N[*:1])[*:2]; hTyr(3S-OH,4S-OH) = N[C@H](C(=O)O)[C@H](O)[C@@H](O)c1ccc(O)cc1; Pro(3S-OH,4S-Me) = C[C@H]1CN[C@H](C(=O)O)[C@H]1O; Hyp = O=C(O)[C@@H]1C[C@@H](O)CN1; Lauroyl = CCCCCCCCCCCC(=O)*; 4Abz = Nc1ccc(C(=O)O)cc1; Aun = NCCCCCCCCCCC(=O)O; Ava = NCCCCC(=O)O

Experiments:
fungi = assay: Antifungal activity of the cyclic nucleus; type: cell-based; settings: in words; nucleus lacking the linoleoyl side chain
[1] = mouse, in vivo, 416 mg/kg, 240 min
Experimental: (§3) In this test, mice are gavaged with a dose of 416 mg/kg of the test compound suspended in 33% PEG 400-water. At time intervals, blood samples are taken from the orbital sinus and are assayed for antibiotic activity as follows: A 7 mm. disc containing 20 μl of whole blood is placed on agar seeded with Aspergillus montevidensis A35137. After 40 hours incubation at 30° C. zones of inhibition from the blood samples are compared to a standard obtained from the test compound, and the amount of compound in the blood sample is calculated.

[2] = test system: Trychophyton mentagrophytes #6; assay: Agar plate disc diffusion test, MIC per disc; type: cell-based; settings: 0.01M sodium borate, pH 7.5, 24 hours at 30° C.
Experimental: (§4) *Compounds were suspended in 0.01M sodium borate solution, pH 7.5.
(§5) compounds were tested at 20 μg/disc at top level and at twofold
(§6) dilutions until end points were reached.

Candida albicans A-26 [3] = assay: Agar plate disc diffusion test, zone of inhibition; type: cell-based; settings: 1 mg/ml suspension in methanol, 7 mm disc, 24-48 hours at 25-37° C., no regrowth mark
Experimental: (§7) ^(a) Compounds were tested as suspension in methanol.
(§8) were tested at a concentration of 1 mg/ml by a dipping 7mm disc into the
(§9) suspension and placing it on the agar surface. Incubation: 24-48 hours at

Candida albicans A-26 [4] = assay: Therapeutic activity against Candida albicans A-26 infection in mice; type: in vivo; settings: A26, sc
Experimental: The results of in vivo tests to evaluate the effectiveness of the compound of Examples 61-81, 86 and 88 against an infection caused by Candida albicans A-26 in mice are given in Table 7, where activity is measured by the ED50 value (the dose in mg/kg. required to cure 50% of the test animals). Where an ED50 value was not obtained, activity is indicated by the lowest dose at which a significant anti-fungal effect is observed. In this test, groups of male albino mice (specific pathogen free), weighing 18 to 20 grams, are infected intravenously with Candida albicans A-26. The animals are X-irradiated 24 hours prior to infection at about 50 roentgens per minute for 8 minutes (400 total dose) to reduce immune responses to the infecting organism. At 0, 4, and 24 hours post infection each group of mice is given graded doses subcutaneously of the test compound as a suspension in 33% polyethylene glycol-water. The day of death for each animal is recorded.
*Dosage Schedule: 40, 20, 15, and 10 mg/kg. Dosages given 0, 4, and 24
hours post injection as suspension of test compound in 30% PEGH2 O.
Number of mice receiving test compounds at each dosage level: 6 mice per
group. Number of mice in control (untreated) group: 10 mice per group.
**As measured by increase in survival time of treated animals versus
control, calculated by method of Reed V. Mueuch, American J. Hygiene, 493

[5] = test system: Trichophyton mentagrophytes; assay: Agar plate disc diffusion test, zone of inhibition; type: cell-based
Experimental: as §7, §8, §9

[6] = test system: Saccharomyces pastorianus X-52; assay: Agar plate disc diffusion test, zone of inhibition; type: cell-based; settings: 1 mg/ml suspension in methanol, 7 mm disc, 24-48 hours at 25-37° C.; for zone of inhibition at 1000 µg/mL: Saccharomyces pastorianus, X52, 48 h
Experimental: as §7, §8, §9

Neurospora Crassa 846 = assay: Agar plate disc diffusion test, zone of inhibition; type: cell-based; settings: 7 mm disc; for zone of inhibition at 1000 µg/mL: Neurospora crassa
Experimental: as §7, §8, §9

Candida albicans SBH 28 = assay: Agar dilution assay; type: cell-based
Experimental: (§1) Tables 4 and 5 give the results of the testing in vitro of the compounds of Examples 61-81 by agar-plate disc-diffusion methods. In Table 4 activity is measured by the size (diameter in mm.) of the observed zone of inhibition of the microorganism produced by the test compound. In Table 5, activity is measured by the minimal inhibitory concentration (MIC) of the substance (μg/disc) required to inhibit growth of the test organism. Table 6 gives the results of the testing in vitro of the N-(n-dodecanoyl)-p-aminobenzoyl derivative of A30912A nucleus (Formula III, R^1 is N-(dodecanoyl)-p-aminobenzoyl) against five strains of Candida albicans by the agar dilution method. In Table 6 activity is measured by the minimal inhibitory concentration (MIC) of the substance (μg/ml) required to inhibit the test organism.
(§2) In vitro activity of the N-(n-dodecanoyl)-p-aminobenzoyl (Example 64) and the N-(n-dodecanoyl)-5-amino-n-pentanoyl (Example 62) derivatives of A-30912A nucleus against 5 strains of Candida albicans by the agar dilution assay.

Candida albicans SBH 16 = assay: Agar dilution assay; type: cell-based
Experimental: as §1, §2

Candida albicans SBH 31 = assay: Agar dilution assay; type: cell-based
Experimental: as §1, §2

Candida albicans A26 = assay: Agar dilution assay; type: cell-based
Experimental: as §1, §2

Candida albicans SBH 29 = assay: Agar dilution assay; type: cell-based
Experimental: as §1, §2

Candida albicans A-26 [7] = assay: Agar plate disc diffusion test, MIC per disc; type: cell-based; settings: 0.01M sodium borate, pH 7.5, 24 hours at 30° C.
Experimental: as §4, §5, §6

in vivo = settings: mouse, po, 416 mg/kg
Experimental: as §3

[8] = Blood levels after oral administration in mice; settings: mouse, in vivo, po, 416 mg/kg
Experimental: as §3

[9] = Toxicity in dog on intravenous administration; type: in vivo; settings: 100 mg/kg per day for five days
[10] = subcutaneous at 0, 4 and 24 hours post infection, dose to cure 50% of test animals, by increase in survival time, read-out: ED50
[11] = subcutaneous at 0, 4 and 24 hours post infection, lowest dose with significant anti-fungal effect, read-out: Lowest Active Dose
[12] = 1 mg/ml, 7 mm disc, * measurable zone of inhibition with regrowth of organism around disc, read-out: Size of Zone of Inhibition (*)
[13] = Saccharomyces pastorianus X-52, read-out: Size of Zone of Inhibition
[14] = CRASSA846, Neurospora Crassa 846, 1 mg/ml, * measurable zone of inhibition with regrowth of organism around disc, read-out: Size of Zone of Inhibition (*)
[15] = 1 mg/ml, 7 mm disc, * measurable zone of inhibition with regrowth of organism around disc

Row | Structure (SMILES) | Blood Levels [1] [ng/mL] | MIC [2] [μg/disc] | Size of Zone of Inhibition (Candida albicans A-26 [3]) | ED50 (Candida albicans A-26 [4]; [10]) [mg/kg] | minimal effective dose (Candida albicans A-26 [4]; [11]) [mg/kg] | zone of inhibition at 1000 µg/mL [5, 12] [mm] | zone of inhibition at 1000 µg/mL [6, 13] [mm] | zone of inhibition at 1000 µg/mL (Neurospora Crassa 846; [14]) [mm] | MIC (Candida albicans A-26 [7]) | Size of Zone of Inhibition (*) [5, 15] [mm] | Size of Zone of Inhibition ([6]; Saccharomyces pastorianus X-52) [mm] | further results
1 | C[C@@H](O)[C@@H]1NC(=O)[C@H]([C@H](O)[C@@H](O)c2ccc(O)cc2)NC(=O)[C@@H]2C[C@@H](O)CN2C(=O)[C@H]([C@@H](C)O)NC(=O)[C@@H](N)C[C@@H](O)[C@@H](O)NC(=O)[C@@H]2[C@@H](O)[C@@H](C)CN2C1=O [A-30912A nucleus] (H-[Orn(4R-OH,5R-OH)]T[Hyp][hTyr(3S-OH,4S-OH)]T[Pro(3S-OH,4S-Me)]; lactam 1-C) |  |  |  |  |  |  |  |  |  |  |  | antifungal activity (fungi): substantially devoid of antifungal activity
2 | CCCCCCCCCCCC(=O)NCCCCC(=O)N[C@H]1C[C@@H](O)[C@@H](O)NC(=O)[C@@H]2[C@@H](O)[C@@H](C)CN2C(=O)[C@H]([C@@H](C)O)NC(=O)[C@H]([C@H](O)[C@@H](O)c2ccc(O)cc2)NC(=O)[C@@H]2C[C@@H](O)CN2C(=O)[C@H]([C@@H](C)O)NC1=O [Example 62, N-(n-dodecanoyl)-5-amino-n-pentanoyl derivative of A-30912A nucleus] ({Lauroyl-Ava}-[Orn(4R-OH,5R-OH)]T[Hyp][hTyr(3S-OH,4S-OH)]T[Pro(3S-OH,4S-Me)]; lactam 1-C) | 0 | 0.078 | 25 mm | 22 | 20 | 60 | 15 | 27 | 1.25 μg/disc |  |  | MIC (Candida albicans SBH 28; SBH28, agar dilution, strain SBH 28, read-out: MIC): 2.5 µg/mL (≈ 2.32 µM); MIC (Candida albicans SBH 16; SBH16, agar dilution, strain SBH 16, read-out: MIC): 2.5 µg/mL (≈ 2.32 µM); MIC (Candida albicans SBH 31; SBH31, agar dilution, strain SBH 31, read-out: MIC): 2.5 µg/mL (≈ 2.32 µM); MIC (Candida albicans A26; agar dilution, strain A26, read-out: MIC): 1.25 µg/mL (≈ 1.16 µM); MIC (Candida albicans SBH 29; SBH29, agar dilution, strain SBH 29, read-out: MIC): 2.5 µg/mL (≈ 2.32 µM)
3 | CCCCCCCCCCCC(=O)NCCCCCCCCCCC(=O)N[C@H]1C[C@@H](O)[C@@H](O)NC(=O)[C@@H]2[C@@H](O)[C@@H](C)CN2C(=O)[C@H]([C@@H](C)O)NC(=O)[C@H]([C@H](O)[C@@H](O)c2ccc(O)cc2)NC(=O)[C@@H]2C[C@@H](O)CN2C(=O)[C@H]([C@@H](C)O)NC1=O [Example 63] ({Lauroyl-Aun}-[Orn(4R-OH,5R-OH)]T[Hyp][hTyr(3S-OH,4S-OH)]T[Pro(3S-OH,4S-Me)]; lactam 1-C) | 0 | 0.156 | 24 mm and 25 mm | > 40 | > 40 | 55 | 15 | 28 | 2.5 μg/disc and 1.25 μg/disc | 63 | 18 | zone of inhibition at 1000 µg/mL ([5]; 48 h, 1 mg/ml suspension in methanol, 7 mm disc, 24-48 hours at 25-37° C., no regrowth mark, read-out: Size of Zone of Inhibition): 56 mm; concentration at 4 h (in vivo): 400 ng/mL; Size of Zone of Inhibition (Neurospora Crassa 846; Neurospora Crassa 846, 1 mg/ml suspension in methanol, 24-48 hours at 25-37° C., no regrowth mark): 28 mm; zone of inhibition at 1000 µg/mL (Neurospora Crassa 846; CRASSA846, 48 h, Neurospora Crassa 846, 1 mg/ml suspension in methanol, 24-48 hours at 25-37° C., no regrowth mark, read-out: Size of Zone of Inhibition): 35 mm
4 | CCCCCCCCCCCC(=O)Nc1ccc(C(=O)N[C@H]2C[C@@H](O)[C@@H](O)NC(=O)[C@@H]3[C@@H](O)[C@@H](C)CN3C(=O)[C@H]([C@@H](C)O)NC(=O)[C@H]([C@H](O)[C@@H](O)c3ccc(O)cc3)NC(=O)[C@@H]3C[C@@H](O)CN3C(=O)[C@H]([C@@H](C)O)NC2=O)cc1 [Example 64, N-(n-dodecanoyl)-p-aminobenzoyl derivative of A-30912A nucleus] ({Lauroyl-4Abz}-[Orn(4R-OH,5R-OH)]T[Hyp][hTyr(3S-OH,4S-OH)]T[Pro(3S-OH,4S-Me)]; lactam 1-C) |  |  | 23 mm and 19 mm |  |  |  |  |  | 0.625 μg/disc and 1.25 μg/disc | 56 | 17 | ED50 (Candida albicans A-26 [4]): 15 mg/kg; minimal effective dose (Candida albicans A-26 [4]; read-out: Lowest Active Dose, subcutaneous at 0, 4 and 24 hours post infection, lowest dose with significant anti-fungal effect): 10 mg/kg; concentration at 4 h [8]: 830 ng/mL; zone of inhibition at 1000 µg/mL ([5]; read-out: Size of Zone of Inhibition (*), Trichophyton mentagrophytes, 1 mg/ml, 7 mm disc, * measurable zone of inhibition with regrowth of organism around disc): 55 mm; SGPT levels [9]: increased SGPT levels were observed; outward signs of toxicity [9]: no outward signs of toxicity; zone of inhibition at 1000 µg/mL ([6]; read-out: Size of Zone of Inhibition, Saccharomyces pastorianus X-52): 21 mm; Size of Zone of Inhibition (*) (Neurospora Crassa 846; Neurospora Crassa 846, 1 mg/ml, * measurable zone of inhibition with regrowth of organism around disc): 35 mm; zone of inhibition at 1000 µg/mL (Neurospora Crassa 846; CRASSA846, read-out: Size of Zone of Inhibition (*), Neurospora Crassa 846, 1 mg/ml, * measurable zone of inhibition with regrowth of organism around disc): 33 mm; MIC (Candida albicans SBH 28; SBH28): 0.625 µg/mL (≈ 0.569 µM); MIC (Candida albicans SBH 16; SBH16): 0.625 µg/mL (≈ 0.569 µM); MIC (Candida albicans SBH 31; SBH31): 0.625 µg/mL (≈ 0.569 µM); MIC (Candida albicans A26; A26): 0.312 µg/mL (≈ 0.284 µM); MIC (Candida albicans SBH 29; SBH29): 0.625 µg/mL (≈ 0.569 µM)
